# Source: patent US20100056524A1, “Compound” (priority 2008, published 2010)
# Where a name gives a salt, the structure may show the parent alone. Read-outs that look alike come from different tables or passages of the source.
# Tests used:
# Format in all cases: biochemical
# PRAK = target: T1, PRAK (Homo sapiens, UniProt Q8IW41); test: PRAK protein kinase assay; conditions: for remaining activity at 10 µM: 10 μM compound; for residual kinase activity PRAK: 1 μm compound; for remaining activity at 1 µM: 1 μM compound
# T1 construct: All protein kinases were of human origin and encoded full length proteins, unless indicated otherwise; made in house
# T1 sequence (Q8IW41 1-473): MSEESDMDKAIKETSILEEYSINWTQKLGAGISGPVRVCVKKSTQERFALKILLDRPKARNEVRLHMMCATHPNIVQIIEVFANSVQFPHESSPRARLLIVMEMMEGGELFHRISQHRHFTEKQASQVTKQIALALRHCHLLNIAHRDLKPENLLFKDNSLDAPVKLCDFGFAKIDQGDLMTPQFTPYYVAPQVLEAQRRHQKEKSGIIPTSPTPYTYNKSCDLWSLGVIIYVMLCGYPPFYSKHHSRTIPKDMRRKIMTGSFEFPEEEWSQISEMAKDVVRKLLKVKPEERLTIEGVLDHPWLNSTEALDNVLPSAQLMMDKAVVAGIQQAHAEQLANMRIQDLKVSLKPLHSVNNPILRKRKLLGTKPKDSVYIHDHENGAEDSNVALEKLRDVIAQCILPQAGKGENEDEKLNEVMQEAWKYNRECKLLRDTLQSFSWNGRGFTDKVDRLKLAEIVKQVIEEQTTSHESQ
# Excerpt: (§1) All protein kinases were of human origin and encoded full length proteins, unless indicated otherwise. They were either expressed as glutathione S-transferase (GST) fusion proteins in Escherichia Coli or as hexahistidine (His6)-tagged proteins in insect Sf21 cells. GST fusion proteins were purified by affinity chromatography on glutathione-Sepharose, and His6-tagged proteins on nickel/nitriloacetate-agarose. The procedures for expressing some of the protein kinases used herein have been detailed previously.^8,9 The following sections outline the DNA vectors synthesised and the procedures used to express and purifying protein kinases that have not been reported previously.
# (§2) All assays (25.5 μl) were carried out at room temperature (21° C.) and were linear with respect to time and enzyme concentration under the conditions used. Assays were performed for 30 min using Multidrop Micro reagent dispensers (Thermo Electron Corporation, Waltham, Mass. 02454, USA) in a 96-well format. The concentration of magnesium acetate in the assays was 10 mM and the [γ-33P] ATP (800 cpm/pmol) was used at 5, 20 or 50 μM as indicated, in order to be at or below the Km for ATP for each enzyme. Protein kinases assayed at 5 μM ATP were: —ERK1, ERK8, PKBα, MARK3, Aurora C. Protein kinases assayed at 20 μM ATP were: —JNK1, PDK1, CHK1, CHK2, CDK2 and Aurora B. Protein kinases assayed at 50 μM ATP were: —MNK2, IKKepsilon and TBK1.
# (§3) The assays were initiated with MgATP, stopped by addition of 5 μl of 0.5 M orthophosphoric acid and spotted on to P81 filterplates using a unifilter harvester (PerkinElmer, Boston, Mass. 02118, USA). The IC50 values of inhibitors were determined after carrying out assays at 10 different concentrations of each compound.
# (§4) Unless stated otherwise, enzymes were diluted in 50 mM Tris/HCl pH 7.5, 0.1 mM EGTA, 1 mg/ml BSA, 0.1% (v/v) 2-mercaptoethanol and assayed in 50 mM Tris/HCl pH 7.5, 0.1 mM EGTA, 0.1% (v/v) 2-mercaptoethanol.
# EPH-B3 = target: T2, EPH-B3 (Homo sapiens, UniProt P54753); test: EPH-B3 protein kinase assay; conditions: for remaining activity at 10 µM: 10 μM compound; for residual kinase activity EPH-B3: 1 μm compound; for remaining activity at 1 µM: 1 μM compound
# T2 construct: All protein kinases were of human origin and encoded full length proteins, unless indicated otherwise; made in house
# T2 sequence (P54753 34-998): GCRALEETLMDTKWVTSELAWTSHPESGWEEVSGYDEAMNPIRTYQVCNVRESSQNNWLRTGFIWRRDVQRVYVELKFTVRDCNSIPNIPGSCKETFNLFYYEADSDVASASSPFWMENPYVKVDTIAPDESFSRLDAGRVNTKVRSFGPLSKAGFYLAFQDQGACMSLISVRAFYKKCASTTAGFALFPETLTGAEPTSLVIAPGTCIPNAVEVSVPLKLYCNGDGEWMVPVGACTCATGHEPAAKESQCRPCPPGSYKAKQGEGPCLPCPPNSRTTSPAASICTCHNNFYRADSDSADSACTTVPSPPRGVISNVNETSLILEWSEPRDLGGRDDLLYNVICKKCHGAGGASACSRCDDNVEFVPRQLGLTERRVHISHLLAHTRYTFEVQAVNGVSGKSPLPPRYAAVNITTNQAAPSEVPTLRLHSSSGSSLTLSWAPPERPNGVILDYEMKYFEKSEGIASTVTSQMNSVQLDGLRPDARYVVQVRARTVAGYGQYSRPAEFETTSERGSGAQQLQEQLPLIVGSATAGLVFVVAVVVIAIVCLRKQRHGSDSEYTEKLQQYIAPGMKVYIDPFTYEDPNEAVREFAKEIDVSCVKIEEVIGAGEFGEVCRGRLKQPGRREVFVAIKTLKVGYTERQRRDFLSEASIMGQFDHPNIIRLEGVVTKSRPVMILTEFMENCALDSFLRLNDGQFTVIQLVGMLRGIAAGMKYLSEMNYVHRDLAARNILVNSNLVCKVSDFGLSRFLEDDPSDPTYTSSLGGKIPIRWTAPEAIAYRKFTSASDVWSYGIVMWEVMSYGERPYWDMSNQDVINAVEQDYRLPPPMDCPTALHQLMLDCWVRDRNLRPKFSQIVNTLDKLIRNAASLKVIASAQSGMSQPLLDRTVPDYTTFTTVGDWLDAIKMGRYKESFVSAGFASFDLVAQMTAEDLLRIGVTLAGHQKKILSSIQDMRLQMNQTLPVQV
# Excerpt: as §1, §2, §3, §4
# JNK1 = target: T3, JNK1 (Homo sapiens, UniProt P45983); test: JNK1 protein kinase assay; conditions: for remaining activity at 10 µM: 10 μM compound; for residual kinase activity JNK1: 1 μm compound; for remaining activity at 1 µM: 1 μM compound
# T3 construct: All protein kinases were of human origin and encoded full length proteins, unless indicated otherwise; made in house
# Excerpt: as §1
# In order to produce activated forms of Aurora B and Aurora C, insect Sf21 cells were incubated for 1 h with the protein phosphatase inhibitor okadaic acid (50 nM). JNK isoforms were activated with MKK4 and MKK7, MNK2 with p38α MAPkinase; PKBα, PKBβ, with PDK1, and ERK1 with MKK1. To activate CDK2, bacterial pellets expressing cyclin A2 and CDK2 were mixed together, lyse and purified on glutathione Sepharose. The GST-tags were removed by cleavage with PreScission protease and the CDK2-cyclin A2 complex purified by chromatography on SP-Sepharose. It was then activated with CAK1/CDK7 followed by chromatography on nickel-nitrilotriacetate agarose to remove CAK1/CDK7, which binds to this column by virtue of its C-terminal His6 tag. All the other protein kinases were active as expressed.
# as §2, §3, §4
# DYRK1A = target: T4, DYRK1A (Homo sapiens, UniProt Q13627); test: DYRK1A protein kinase assay; conditions: for remaining activity at 10 µM: 10 μM compound; for residual kinase activity DYRK1A: 1 μm compound; for remaining activity at 1 µM: 1 μM compound
# T4 construct: All protein kinases were of human origin and encoded full length proteins, unless indicated otherwise; made in house
# Excerpt: as §1, §2, §3, §4
# [1] = read-out: residual kinase activity PRAK
# [2] = read-out: residual kinase activity EPH-B3
# [3] = read-out: residual kinase activity JNK1
# [4] = read-out: residual kinase activity DYRK1A
# [5] = PRAK, read-out: residual kinase activity
# [6] = EPH-B3, read-out: residual kinase activity
# [7] = JNK1, 20 μM ATP, read-out: residual kinase activity
# [8] = DYRK1A, read-out: residual kinase activity
# T3 sequence (P45983 1-384 isoform P45983-2): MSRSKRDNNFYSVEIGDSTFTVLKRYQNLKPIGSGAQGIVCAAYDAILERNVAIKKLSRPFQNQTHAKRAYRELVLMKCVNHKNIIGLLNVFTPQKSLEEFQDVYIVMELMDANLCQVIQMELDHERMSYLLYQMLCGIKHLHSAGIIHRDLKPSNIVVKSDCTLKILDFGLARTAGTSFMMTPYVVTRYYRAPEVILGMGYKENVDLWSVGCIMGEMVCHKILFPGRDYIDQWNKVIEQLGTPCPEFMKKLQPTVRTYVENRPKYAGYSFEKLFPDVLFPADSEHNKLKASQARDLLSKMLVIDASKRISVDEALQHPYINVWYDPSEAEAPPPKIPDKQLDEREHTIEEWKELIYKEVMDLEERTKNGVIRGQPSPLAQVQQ
SMILES,remaining activity at 10 µM (PRAK; [1]),residual kinase activity PRAK (PRAK),remaining activity at 10 µM (EPH-B3; [2]),residual kinase activity EPH-B3 (EPH-B3),remaining activity at 10 µM (JNK1; [3]),residual kinase activity JNK1 (JNK1),remaining activity at 10 µM (DYRK1A; [4]),residual kinase activity DYRK1A (DYRK1A),remaining activity at 1 µM (PRAK; [5]),remaining activity at 10 µM (PRAK; [5]),remaining activity at 1 µM (EPH-B3; [6]),remaining activity at 10 µM (EPH-B3; [6]),remaining activity at 1 µM (JNK1; [7]),remaining activity at 10 µM (JNK1; [7]),remaining activity at 1 µM (DYRK1A; [8]),remaining activity at 10 µM (DYRK1A; [8])
"O=C(NCCCNc1nc(Nc2cccc(F)c2)ncc1Br)C1CCC1 [Compound A, cyclobutanecarboxylic acid {3-[5-bromo-2-(3-fluoro-phenylamino)-pyrimidin-4-ylamino]-propyl}-amide, reference compound]",31%,65%,69%,92%,9%,46%,38%,74%,–,–,–,–,–,–,–,–
"O=C(NCCCNc1nc(Nc2cccc(F)c2)ncc1C1CC1)C1CCC1 [Example 23, Cyclobutanecarboxylic acid {3-[5-cyclopropyl-2-(3-fluoro-phenylamino)-pyrimidin-4-ylamino]-propyl}-amide]",96%,93%,95%,120%,73%,91%,56%,78%,93%,96%,120%,95%,91%,73%,78%,56%
"O=C(NCCCNc1nc(Nc2cccc(N3CCCC3=O)c2)ncc1C1CC1)c1cccs1 [Example 47, Thiophene-2-carboxylic acid (3-{5-cyclopropyl-2-[3-(2-oxo-pyrrolidin-1-yl)-phenylamino]-pyrimidin-4-ylamino}-propyl)-amide. Hydrochloride salt]",–,–,–,–,–,–,–,–,70%,76%,48%,93%,92%,86%,84%,78%
"O=C(NCCCNc1nc(Nc2cccnc2)ncc1C1CC1)c1cccs1 [Example 50, Thiophene-2-carboxylic acid {3-[5-cyclopropyl-2-(pyridin-3-ylamino)-pyrimidin-4-ylamino]-propyl}-amide]",–,–,–,–,–,–,–,–,64%,64%,100%,97%,94%,87%,88%,57%
